Assay results as given in ChEMBL document CHEMBL3885861, “Open TG-GATES”.

Organism: Rattus norvegicus
Test: Open TG-GATES - Regimen: Single
Type: toxicity, organism-based, Sprague-Dawley
Design: regimen Single, gender Male, age 6 weeks
Settings: in vivo, ip, 0.01 mg/kg, route intraperitoneal injection, dose 10 ug/Kg, dose level High; for APTT / Bas / Eos / Fbg / Hb / Ht / Lym / MCH / MCHC / MCV / Mono / Neu / PT / Plat / RBC / Ret / WBC: tissue Blood; for KIDNEY_L / KIDNEY_R / KIDNEY_TOTAL: tissue Kidney; for LIVER: tissue Liver; for A/G / ALP / ALT / AST / BUN / CRE / Ca / Cl / DBIL / GLC / IP / K / LDH / Na / PL / RALB / TBIL / TC / TG / TP / gamma-GTP: tissue Plasma

## H-KGDRLS-OH [TNF-ALPHA]
3 h
  TERMINAL_BW: 199.5 g
  APTT: 15.7 s
  Bas: 0.2%
  Eos: 0.4%
  Fbg: 279.2 mg/dL
  Hb: 13.2 g/dL
  Ht: 40.1%
  Lym: 75%
  MCH: 21.5 pg
  MCHC: 32.8%
  MCV: 65.3 fL
  Mono: 4.4%
  Neu: 18.8%
  PT: 15.4 s
  Plat: 115.5 x10_4/uL
  RBC: 615.2 x10_4/ul
  Ret: 9.2%
  WBC: 82.2 x10_2/uL
  KIDNEY_L: 0.9 g
  KIDNEY_R: 0.9 g
  KIDNEY_TOTAL: 1.7 g
  LIVER: 8.8 g
  A/G: 0.9
  ALP: 1307.2 IU/L
  ALT: 43.6 IU/L
  AST: 79.2 IU/L
  BUN: 10.4 mg/dL
  CRE: 0.2 mg/dL
  Ca: 10.7 mg/dL
  Cl: 105.8 meq/L
  DBIL: 0.01 mg/dL
  GLC: 167 mg/dL
  IP: 9.8 mg/dL
  K: 4 meq/L
  LDH: 71 IU/L
  Na: 142.4 meq/L
  PL: 141.2 mg/dL
  RALB: 2.4 g/dL
  TBIL: 0.062 mg/dL
  TC: 77.8 mg/dL
  TG: 50.4 mg/dL
  TP: 5.2 g/dL
  gamma-GTP: 1.2 IU/L
6 h
  TERMINAL_BW: 194.4 g
  APTT: 18.1 s
  Bas: 0%
  Eos: 0.2%
  Fbg: 349.4 mg/dL
  Hb: 13.2 g/dL
  Ht: 40.3%
  Lym: 62.4%
  MCH: 21 pg
  MCHC: 32.9%
  MCV: 63.8 fL
  Mono: 2.6%
  Neu: 34.2%
  PT: 15 s
  Plat: 106.9 x10_4/uL
  RBC: 632.2 x10_4/ul
  Ret: 7.9%
  WBC: 58.5 x10_2/uL
  KIDNEY_L: 0.9 g
  KIDNEY_R: 0.9 g
  KIDNEY_TOTAL: 1.8 g
  LIVER: 8.5 g
  A/G: 0.8
  ALP: 1422.6 IU/L
  ALT: 37.6 IU/L
  AST: 73 IU/L
  BUN: 8.6 mg/dL
  CRE: 0.2 mg/dL
  Ca: 10.8 mg/dL
  Cl: 105.4 meq/L
  DBIL: 0.008 mg/dL
  GLC: 170.8 mg/dL
  IP: 9.8 mg/dL
  K: 3.8 meq/L
  LDH: 67.2 IU/L
  Na: 143.2 meq/L
  PL: 162.2 mg/dL
  RALB: 2.5 g/dL
  TBIL: 0.06 mg/dL
  TC: 91.8 mg/dL
  TG: 40.2 mg/dL
  TP: 5.4 g/dL
  gamma-GTP: 1.4 IU/L
9 h
  TERMINAL_BW: 194.6 g
  APTT: 19.4 s
  Bas: 0%
  Eos: 0.6%
  Fbg: 371 mg/dL
  Hb: 13.4 g/dL
  Ht: 40.6%
  Lym: 69.8%
  MCH: 21.4 pg
  MCHC: 32.9%
  MCV: 64.8 fL
  Mono: 1.8%
  Neu: 26.8%
  PT: 15.3 s
  Plat: 105.5 x10_4/uL
  RBC: 627.6 x10_4/ul
  Ret: 8.3%
  WBC: 66.7 x10_2/uL
  KIDNEY_L: 0.9 g
  KIDNEY_R: 0.9 g
  KIDNEY_TOTAL: 1.7 g
  LIVER: 7.9 g
  A/G: 0.8
  ALP: 1174.4 IU/L
  ALT: 32.6 IU/L
  AST: 62.8 IU/L
  BUN: 7.2 mg/dL
  CRE: 0.2 mg/dL
  Ca: 10.8 mg/dL
  Cl: 104.4 meq/L
  DBIL: 0.004 mg/dL
  GLC: 167.2 mg/dL
  IP: 10.2 mg/dL
  K: 3.9 meq/L
  LDH: 55.2 IU/L
  Na: 141.6 meq/L
  PL: 159.2 mg/dL
  RALB: 2.5 g/dL
  TBIL: 0.064 mg/dL
  TC: 96.6 mg/dL
  TG: 22.2 mg/dL
  TP: 5.5 g/dL
  gamma-GTP: 1.4 IU/L
24 h
  TERMINAL_BW: 211.6 g
  APTT: 15.6 s
  Bas: 0.2%
  Eos: 0.8%
  Fbg: 323.4 mg/dL
  Hb: 13.1 g/dL
  Ht: 40.2%
  Lym: 80.4%
  MCH: 21.5 pg
  MCHC: 32.6%
  MCV: 65.8 fL
  Mono: 3%
  Neu: 15%
  PT: 15.5 s
  Plat: 116.4 x10_4/uL
  RBC: 610.2 x10_4/ul
  Ret: 8.5%
  WBC: 77.3 x10_2/uL
  KIDNEY_L: 1 g
  KIDNEY_R: 0.9 g
  KIDNEY_TOTAL: 1.9 g
  LIVER: 9.8 g
  A/G: 0.8
  ALP: 1565.6 IU/L
  ALT: 47.8 IU/L
  AST: 69.6 IU/L
  BUN: 15.4 mg/dL
  CRE: 0.2 mg/dL
  Ca: 11.1 mg/dL
  Cl: 106.6 meq/L
  DBIL: 0.012 mg/dL
  GLC: 190 mg/dL
  IP: 8.9 mg/dL
  K: 4.4 meq/L
  LDH: 93.6 IU/L
  Na: 142.2 meq/L
  PL: 156 mg/dL
  RALB: 2.6 g/dL
  TBIL: 0.042 mg/dL
  TC: 83.6 mg/dL
  TG: 76.2 mg/dL
  TP: 5.7 g/dL
  gamma-GTP: 1 IU/L
